The kinase profiling compilation of Christmann-Franck et al. (2016)

Legend:
Assay in all cases: KINOMEscan competition binding
Conditions in all cases: compound 10.0 µM
[1] = system: ABL1 (human), P00519 [E255K]
[2] = biological target: CDK4 CCND3 (human) (UniProt P11802+P30281)
[3] = biological target: CDKL1 (human) (UniProt Q00532)
[4] = biological target: CSNK1A1 (human) (UniProt P48729)
[5] = biological target: DSTYK (human) (UniProt Q6XUX3)
[6] = biological target: EGFR (human) (UniProt P00533)
[7] = biological target: EPHB6 (human) (UniProt O15197)
[8] = biological target: ERBB3 (human) (UniProt P21860)
[9] = biological target: ERN1 (human) (UniProt O75460)
[10] = biological target: GRK1 (human) (UniProt Q15835)
[11] = biological target: GRK4 (human) (UniProt P32298)
[12] = biological target: HIPK2 (human) (UniProt Q9H2X6)
[13] = biological target: HIPK3 (human) (UniProt Q9H422)
[14] = biological target: HIPK4 (human) (UniProt Q8NE63)
[15] = biological target: HUNK (human) (UniProt P57058)
[16] = biological target: ICK (human) (UniProt Q9UPZ9)
[17] = biological target: IRAK1 (human) (UniProt P51617)
[18] = biological target: LRRK2 (human) (UniProt Q5S007)
[19] = biological target: MAP3K1 (human) (UniProt Q13233)
[20] = biological target: MAP3K13 (human) (UniProt O43283)
[21] = biological target: MAP3K2 (human) (UniProt Q9Y2U5)
[22] = biological target: MATK (human) (UniProt P42679)
[23] = biological target: MET (human) (UniProt P08581)
[24] = biological target: NEK11 (human) (UniProt Q8NG66)
[25] = biological target: NEK3 (human) (UniProt P51956)
[26] = biological target: PI4KB (human) (UniProt Q9UBF8)
[27] = biological target: PIK3C2G (human) (UniProt O75747)
[28] = biological target: PIK3CA (human) (UniProt P42336)
[29] = system: PIK3CA (human), P42336 [E545A]
[30] = system: PIK3CA (human), P42336 [E545K]
[31] = biological target: PIK3CG (human) (UniProt P48736)
[32] = biological target: PIP5K1C (human) (UniProt O60331)
[33] = biological target: ROCK1 (human) (UniProt Q13464)
[34] = biological target: SIK3 (human) (UniProt Q9Y2K2)
[35] = biological target: SNRK (human) (UniProt Q9NRH2)
[36] = biological target: STK39 (human) (UniProt Q9UEW8)
[37] = biological target: TAOK2 (human) (UniProt Q9UL54)
[38] = biological target: TIE1 (human) (UniProt P35590)
[39] = biological target: TRPM6 (human) (UniProt Q9BX84)
[40] = biological target: VRK2 (human) (UniProt Q86Y07)

Chain of GRK1 (human) (Q15835 whole entry, looked up): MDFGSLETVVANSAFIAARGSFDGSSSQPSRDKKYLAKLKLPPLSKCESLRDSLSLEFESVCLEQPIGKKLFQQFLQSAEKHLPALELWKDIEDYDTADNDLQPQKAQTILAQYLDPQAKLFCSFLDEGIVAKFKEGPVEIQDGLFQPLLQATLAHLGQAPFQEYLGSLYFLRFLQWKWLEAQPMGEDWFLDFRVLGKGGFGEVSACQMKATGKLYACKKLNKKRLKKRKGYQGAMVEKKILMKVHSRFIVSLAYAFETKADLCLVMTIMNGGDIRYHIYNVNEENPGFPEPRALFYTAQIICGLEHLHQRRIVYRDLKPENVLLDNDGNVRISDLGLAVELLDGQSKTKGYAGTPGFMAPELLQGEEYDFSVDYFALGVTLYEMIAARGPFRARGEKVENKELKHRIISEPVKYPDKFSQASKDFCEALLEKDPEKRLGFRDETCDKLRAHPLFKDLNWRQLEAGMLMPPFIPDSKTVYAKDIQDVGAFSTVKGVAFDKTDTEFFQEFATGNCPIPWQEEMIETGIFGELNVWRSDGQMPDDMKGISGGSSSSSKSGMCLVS
Chain of MAP3K13 (human) (O43283 whole entry, looked up): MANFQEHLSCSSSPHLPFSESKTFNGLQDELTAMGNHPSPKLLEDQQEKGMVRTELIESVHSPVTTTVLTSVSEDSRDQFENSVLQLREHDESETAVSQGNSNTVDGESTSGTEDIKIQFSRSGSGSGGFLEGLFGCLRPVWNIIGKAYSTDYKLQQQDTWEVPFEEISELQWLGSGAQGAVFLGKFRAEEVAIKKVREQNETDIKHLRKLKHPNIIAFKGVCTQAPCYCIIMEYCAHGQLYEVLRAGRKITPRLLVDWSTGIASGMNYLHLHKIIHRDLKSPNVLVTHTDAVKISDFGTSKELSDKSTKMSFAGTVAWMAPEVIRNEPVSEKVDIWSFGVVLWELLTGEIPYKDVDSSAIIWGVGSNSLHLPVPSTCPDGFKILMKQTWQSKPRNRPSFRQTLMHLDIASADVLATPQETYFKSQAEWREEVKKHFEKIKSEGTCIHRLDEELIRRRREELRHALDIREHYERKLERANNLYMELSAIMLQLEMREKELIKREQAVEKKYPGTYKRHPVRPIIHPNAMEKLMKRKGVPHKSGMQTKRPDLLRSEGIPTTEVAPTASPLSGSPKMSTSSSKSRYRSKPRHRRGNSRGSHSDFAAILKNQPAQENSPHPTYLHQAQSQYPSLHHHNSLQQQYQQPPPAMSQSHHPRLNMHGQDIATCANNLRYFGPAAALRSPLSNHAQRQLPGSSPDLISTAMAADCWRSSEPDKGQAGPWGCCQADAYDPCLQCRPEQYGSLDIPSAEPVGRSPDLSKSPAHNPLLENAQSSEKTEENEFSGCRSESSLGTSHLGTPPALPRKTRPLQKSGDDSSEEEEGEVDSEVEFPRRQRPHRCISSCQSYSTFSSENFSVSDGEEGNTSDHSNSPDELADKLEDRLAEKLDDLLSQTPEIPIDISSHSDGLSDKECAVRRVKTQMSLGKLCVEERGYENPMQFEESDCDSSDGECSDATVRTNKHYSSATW
Chain of ROCK1 (human) (Q13464 whole entry, looked up): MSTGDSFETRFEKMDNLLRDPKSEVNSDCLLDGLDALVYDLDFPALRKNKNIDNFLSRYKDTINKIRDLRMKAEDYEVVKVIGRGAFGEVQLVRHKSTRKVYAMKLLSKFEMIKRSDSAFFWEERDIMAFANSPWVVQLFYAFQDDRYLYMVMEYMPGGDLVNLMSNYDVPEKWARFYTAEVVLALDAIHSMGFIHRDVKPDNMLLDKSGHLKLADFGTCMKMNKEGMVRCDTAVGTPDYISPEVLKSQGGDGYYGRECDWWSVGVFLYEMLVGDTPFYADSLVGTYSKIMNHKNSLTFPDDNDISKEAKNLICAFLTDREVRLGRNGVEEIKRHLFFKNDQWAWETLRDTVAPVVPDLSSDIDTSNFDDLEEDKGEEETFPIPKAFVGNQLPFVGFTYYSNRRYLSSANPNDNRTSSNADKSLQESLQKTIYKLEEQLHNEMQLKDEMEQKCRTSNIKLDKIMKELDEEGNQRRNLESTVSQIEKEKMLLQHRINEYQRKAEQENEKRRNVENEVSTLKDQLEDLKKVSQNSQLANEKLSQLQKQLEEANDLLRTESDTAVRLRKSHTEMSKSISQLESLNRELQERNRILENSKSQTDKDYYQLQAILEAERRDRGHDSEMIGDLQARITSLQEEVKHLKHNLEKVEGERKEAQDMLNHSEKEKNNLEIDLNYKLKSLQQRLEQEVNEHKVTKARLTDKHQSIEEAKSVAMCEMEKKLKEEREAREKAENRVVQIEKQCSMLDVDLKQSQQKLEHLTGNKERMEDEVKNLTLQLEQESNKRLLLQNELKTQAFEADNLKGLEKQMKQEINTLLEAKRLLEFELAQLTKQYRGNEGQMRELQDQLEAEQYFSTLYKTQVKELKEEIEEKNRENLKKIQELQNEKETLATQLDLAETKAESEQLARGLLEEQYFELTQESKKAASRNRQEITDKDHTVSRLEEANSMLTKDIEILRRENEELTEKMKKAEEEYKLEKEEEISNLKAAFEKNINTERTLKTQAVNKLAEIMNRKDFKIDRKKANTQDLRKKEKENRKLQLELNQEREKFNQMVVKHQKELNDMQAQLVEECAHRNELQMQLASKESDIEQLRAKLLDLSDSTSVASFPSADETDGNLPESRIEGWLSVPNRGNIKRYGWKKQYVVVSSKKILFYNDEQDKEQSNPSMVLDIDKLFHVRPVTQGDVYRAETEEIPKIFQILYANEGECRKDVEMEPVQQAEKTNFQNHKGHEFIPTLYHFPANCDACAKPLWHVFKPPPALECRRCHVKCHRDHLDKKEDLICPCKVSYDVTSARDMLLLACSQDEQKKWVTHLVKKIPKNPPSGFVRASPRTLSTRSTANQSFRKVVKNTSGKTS
Chain of CDKL1 (human) (Q00532 whole entry, looked up): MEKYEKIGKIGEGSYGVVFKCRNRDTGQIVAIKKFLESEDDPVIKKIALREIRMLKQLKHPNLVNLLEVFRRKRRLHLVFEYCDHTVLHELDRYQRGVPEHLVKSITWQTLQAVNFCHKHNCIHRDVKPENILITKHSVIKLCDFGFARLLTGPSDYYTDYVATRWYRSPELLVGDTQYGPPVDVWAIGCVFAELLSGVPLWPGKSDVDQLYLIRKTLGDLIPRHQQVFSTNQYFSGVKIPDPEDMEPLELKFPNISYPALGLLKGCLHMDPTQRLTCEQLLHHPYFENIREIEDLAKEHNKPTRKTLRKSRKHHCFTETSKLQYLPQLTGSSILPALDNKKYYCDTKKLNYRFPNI
Chain of SNRK (human) (Q9NRH2 whole entry, looked up): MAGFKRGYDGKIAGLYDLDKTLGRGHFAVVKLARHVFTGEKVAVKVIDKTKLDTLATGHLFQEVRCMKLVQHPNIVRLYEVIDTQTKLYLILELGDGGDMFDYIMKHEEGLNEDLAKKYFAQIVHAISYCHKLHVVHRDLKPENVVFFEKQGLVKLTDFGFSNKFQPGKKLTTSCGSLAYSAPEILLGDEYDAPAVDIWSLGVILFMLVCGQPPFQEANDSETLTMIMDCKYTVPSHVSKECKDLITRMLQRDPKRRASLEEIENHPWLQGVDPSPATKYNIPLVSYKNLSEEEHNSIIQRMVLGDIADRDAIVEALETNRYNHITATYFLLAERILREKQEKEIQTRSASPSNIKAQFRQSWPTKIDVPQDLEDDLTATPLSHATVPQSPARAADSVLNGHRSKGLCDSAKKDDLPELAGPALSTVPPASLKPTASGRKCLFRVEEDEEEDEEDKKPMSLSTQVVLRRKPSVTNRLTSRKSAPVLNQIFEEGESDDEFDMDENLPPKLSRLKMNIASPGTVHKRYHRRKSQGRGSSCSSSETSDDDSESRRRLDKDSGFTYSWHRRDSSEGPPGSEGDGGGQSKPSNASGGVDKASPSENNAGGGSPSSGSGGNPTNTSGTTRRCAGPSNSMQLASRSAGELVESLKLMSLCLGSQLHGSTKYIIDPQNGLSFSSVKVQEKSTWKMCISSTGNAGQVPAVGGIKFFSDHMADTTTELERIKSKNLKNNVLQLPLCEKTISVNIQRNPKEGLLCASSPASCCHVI
Chain of NEK11 (human) (Q8NG66 whole entry, looked up): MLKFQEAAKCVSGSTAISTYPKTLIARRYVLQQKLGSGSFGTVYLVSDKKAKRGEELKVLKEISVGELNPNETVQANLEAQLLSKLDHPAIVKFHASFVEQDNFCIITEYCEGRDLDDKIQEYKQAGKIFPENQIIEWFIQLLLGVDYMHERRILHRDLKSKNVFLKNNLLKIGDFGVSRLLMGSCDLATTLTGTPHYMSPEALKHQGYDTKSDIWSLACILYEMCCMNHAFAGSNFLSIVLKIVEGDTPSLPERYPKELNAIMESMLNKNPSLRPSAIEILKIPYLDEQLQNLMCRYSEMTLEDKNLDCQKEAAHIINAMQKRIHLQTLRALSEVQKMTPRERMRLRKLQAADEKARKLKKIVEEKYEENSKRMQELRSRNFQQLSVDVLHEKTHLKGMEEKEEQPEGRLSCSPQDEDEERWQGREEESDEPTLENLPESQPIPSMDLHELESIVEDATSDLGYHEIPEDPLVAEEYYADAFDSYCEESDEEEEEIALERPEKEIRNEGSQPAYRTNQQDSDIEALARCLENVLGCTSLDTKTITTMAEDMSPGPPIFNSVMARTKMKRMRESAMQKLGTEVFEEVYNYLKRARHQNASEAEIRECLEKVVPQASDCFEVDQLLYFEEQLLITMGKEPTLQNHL
Chain of CSNK1A1 (human) (P48729 whole entry, looked up): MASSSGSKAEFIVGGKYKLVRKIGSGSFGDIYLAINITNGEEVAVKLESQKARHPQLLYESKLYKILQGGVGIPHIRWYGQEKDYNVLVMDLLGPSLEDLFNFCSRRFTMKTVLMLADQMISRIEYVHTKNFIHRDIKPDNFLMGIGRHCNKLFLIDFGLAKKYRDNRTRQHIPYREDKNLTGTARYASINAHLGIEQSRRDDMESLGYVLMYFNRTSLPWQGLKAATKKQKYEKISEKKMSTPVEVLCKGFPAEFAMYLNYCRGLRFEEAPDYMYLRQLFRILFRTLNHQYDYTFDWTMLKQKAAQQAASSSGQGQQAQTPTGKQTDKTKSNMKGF

Row | SMILES | kinase still bound, per cent of control [1] [%] | kinase still bound, per cent of control [2] [%] | kinase still bound, per cent of control [3] [%] | kinase still bound, per cent of control [4] [%] | kinase still bound, per cent of control [5] [%] | kinase still bound, per cent of control [6] [%] | kinase still bound, per cent of control [7] [%] | kinase still bound, per cent of control [8] [%] | kinase still bound, per cent of control [9] [%] | kinase still bound, per cent of control [10] [%] | kinase still bound, per cent of control [11] [%] | kinase still bound, per cent of control [12] [%] | kinase still bound, per cent of control [13] [%] | kinase still bound, per cent of control [14] [%] | kinase still bound, per cent of control [15] [%] | kinase still bound, per cent of control [16] [%] | kinase still bound, per cent of control [17] [%] | kinase still bound, per cent of control [18] [%] | kinase still bound, per cent of control [19] [%] | kinase still bound, per cent of control [20] [%] | also measured
1 | Cc1ccc2nc(NCCN)c3ncc(C)n3c2c1 | 87 | 75 | 74 | 68 | 100 | 100 | 44 | 83 | 88 | 100 | 100 | 58 | 32 | 41 | 100 | 100 | 78 | 97 | 74 | 74 | kinase still bound, per cent of control [21]: 100%; kinase still bound, per cent of control [22]: 100%; kinase still bound, per cent of control [23]: 100%; kinase still bound, per cent of control [24]: 100%; kinase still bound, per cent of control [25]: 100%; kinase still bound, per cent of control [26]: 100%; kinase still bound, per cent of control [27]: 23%; kinase still bound, per cent of control [28]: 100%; kinase still bound, per cent of control [29]: 31%; kinase still bound, per cent of control [30]: 100%; kinase still bound, per cent of control [31]: 100%; kinase still bound, per cent of control [32]: 92%; kinase still bound, per cent of control [33]: 100%; kinase still bound, per cent of control [34]: 100%; kinase still bound, per cent of control [35]: 100%; kinase still bound, per cent of control [36]: 100%; kinase still bound, per cent of control [37]: 70%; kinase still bound, per cent of control [38]: 100%; kinase still bound, per cent of control [39]: 87%; kinase still bound, per cent of control [40]: 100%
2 | O=C(NC1CC1)c1cccc(-c2ccc3c(NC(=O)C4CC4)n[nH]c3c2)c1 | 55 | 82 | 58 | 100 | 71 | 96 | 1.4 | 69 | 100 | 100 | 14 | 36 | 62 | 40 | 64 | 13 | 82 | 100 | 100 | 64 | kinase still bound, per cent of control [21]: 63%; kinase still bound, per cent of control [22]: 68%; kinase still bound, per cent of control [23]: 75%; kinase still bound, per cent of control [24]: 95%; kinase still bound, per cent of control [25]: 75%; kinase still bound, per cent of control [26]: 84%; kinase still bound, per cent of control [27]: 100%; kinase still bound, per cent of control [28]: 99%; kinase still bound, per cent of control [29]: 93%; kinase still bound, per cent of control [30]: 95%; kinase still bound, per cent of control [31]: 90%; kinase still bound, per cent of control [32]: 12%; kinase still bound, per cent of control [33]: 57%; kinase still bound, per cent of control [34]: 100%; kinase still bound, per cent of control [35]: 100%; kinase still bound, per cent of control [36]: 99%; kinase still bound, per cent of control [37]: 20%; kinase still bound, per cent of control [38]: 31%; kinase still bound, per cent of control [39]: 100%; kinase still bound, per cent of control [40]: 100%
3 | CCN1CCN(Cc2ccc(Nc3ncc4c(n3)N(C)c3ccccc3C(=O)N4C)cc2C(F)(F)F)CC1 | 0.1 | 100 | 98 | 16 | 7.1 | 73 | 21 | 75 | 96 | 78 | 56 | 100 | 76 | 100 | 59 | 80 | 25 | 15 | 55 | 53 | kinase still bound, per cent of control [21]: 0.55%; kinase still bound, per cent of control [22]: 94%; kinase still bound, per cent of control [23]: 36%; kinase still bound, per cent of control [24]: 100%; kinase still bound, per cent of control [25]: 100%; kinase still bound, per cent of control [26]: 100%; kinase still bound, per cent of control [27]: 17%; kinase still bound, per cent of control [28]: 25%; kinase still bound, per cent of control [29]: 6.2%; kinase still bound, per cent of control [30]: 24%; kinase still bound, per cent of control [31]: 0%; kinase still bound, per cent of control [32]: 24%; kinase still bound, per cent of control [33]: 94%; kinase still bound, per cent of control [34]: 74%; kinase still bound, per cent of control [35]: 88%; kinase still bound, per cent of control [36]: 100%; kinase still bound, per cent of control [37]: 0.1%; kinase still bound, per cent of control [38]: 22%; kinase still bound, per cent of control [39]: 100%; kinase still bound, per cent of control [40]: 100%
